{
  "source": "patent US20220259279A1",
  "about": "“ALGINATE-BASED MICROCAPSULATION FOR THE DELIVERY OF ALPHA-CGRP IN CARDIOVASCULAR DISEASES” (University of South Carolina, priority 2019, published 2022)",
  "system": "rat H9C2 cells",
  "test": "trypan-blue cell viability assay",
  "type": "cell-based",
  "details": "1 μM and 5 μM, 7 days, vs control-untreated cells",
  "method": "Two different cardiac cell lines, rat H9C2 cells and mouse HL-1 cells, and two different assays, trypan-blue cell viability assay and calcium dye fluorescent based assay, were used to determine the cytotoxicity of prepared alginate-αCGRP microcapsules.\nTrypan-blue cell viability assay: Rat cardiac myoblast cell line, H9C2 cells, was cultured in complete culture medium containing Dulbecco's Modified Eagles' Medium (DMEM) supplemented with 10% fetal bovine serum (FBS), 4.5 gm/liter D-glucose, 1.5 gm/liter sodium bicarbonate, and antibiotic solution of 100 unit/ml penicillin and 100 μg/ml streptomycin. […] The viability of H9C2 cells in presence or absence of alginate-αCGRP microcapsules was determined by trypan blue assay. […] After 7 days of treatment, cells were trypsinized and counted by hemocytometer using trypan-blue exclusion method (Sigma) according to manufacturer's instructions. […]\nTrypan-blue cell viability assay: The rat cardiac H9C2 cells were grown at 37° C. in a humidified incubator with 5% CO2 in complete culture medium (containing DMEM supplemented with 10% fetal bovine serum, FBS, 4.5 gm/liter D-glucose, and 1× penicillin/streptomycin). The viability of H9C2 cells in presence of alginate-α-CGRP microcapsules was determined by trypan-blue assay (Sigma). […] After 7 days of treatment, cells were trypsinized and counted by hemocytometer using trypan-blue exclusion method.",
  "data": [
    {"smiles": "CC(C)C[C@H](NC(=O)CNC(=O)[C@H](C)NC(=O)[C@H](CC(C)C)NC(=O)[C@H](CCCNC(=N)N)NC(=O)[C@H](Cc1c[nH]cn1)NC(=O)[C@@H](NC(=O)[C@@H](NC(=O)[C@@H]1CSSC[C@H](NC(=O)[C@@H](N)CO)C(=O)N[C@@H](CC(N)=O)C(=O)N[C@@H]([C@@H](C)O)C(=O)N[C@@H](C)C(=O)N[C@@H]([C@@H](C)O)C(=O)N1)C(C)C)[C@@H](C)O)C(=O)N[C@@H](CC(C)C)C(=O)N[C@@H](CO)C(=O)N[C@@H](CCCNC(=N)N)C(=O)N[C@@H](CO)C(=O)NCC(=O)NCC(=O)N[C@H](C(=O)N[C@H](C(=O)N[C@@H](CCCCN)C(=O)N[C@@H](CC(=O)O)C(=O)N[C@@H](CC(N)=O)C(=O)N[C@@H](Cc1ccccc1)C(=O)N[C@H](C(=O)N1CCC[C@H]1C(=O)N[C@H](C(=O)N[C@@H](CC(N)=O)C(=O)N[C@H](C(=O)NCC(=O)N[C@@H](CO)C(=O)N[C@@H](CCC(=O)O)C(=O)N[C@@H](C)C(=O)N[C@@H](Cc1ccccc1)C(N)=O)C(C)C)[C@@H](C)O)C(C)C)C(C)C)C(C)C", "note": "[α-CGRP-alone]", "values": [
      {"measurement": "viability of H9C2 cells (live cells, trypan blue)", "result": "not significantly different"}
    ]}
  ]
}
